Laboratory results taken from US20170226139A1, “CRYSTALLINE SALTS OF (Z)-O-OCTADEC-9-EN-1-YL O,O-DIHYDROGEN PHOSPHOROTHIOATE” (priority 2013, published 2017).
Marks after values point to notes of the source that are not given here.

Assays:
Human LPA2 = Human LPA2 (Homo sapiens, UniProt Q9HBW0); assay: Competition binding assay, displacement of [3H]LPA from membranes of transfected HEK293 cells; set-up: expressed in transfected cells; host or cells: HEK293 (crude membrane fraction); settings: 20 nM [3H]LPA; membranes of HEK293 cells transfected with human LPA2
Method: A further study was performed to evaluate whether Rx100 displaces lysophosphatidic acid bound to its receptor. HEK293 cells were transfected with human LPA2 receptor.

[1] = system: C57BL/6 murine Animal Model of GI-ARS; assay: Survival after partial body irradiation (tibial sparing), murine Animal Model of GI-ARS (Studies 4.1.4, 4.1.5, 4.1.8); assay type: in vivo, C57BL/6 mice; settings: for Survival Day 10, Rx100 arm (survivors/animals) / Survival Day ≧30, Rx100 arm (survivors/animals) / Survival Advantage Day 10 / Survival Advantage Day ≧30: Murine (♀), start +24; for Survival Advantage Day 10 / Survival Advantage Day ≧30 / Survival advantage 0.3 mg/kg / Survival advantage 3 mg/kg / Survival advantage: vs vehicle; for Survival, 0.3 mg/kg / Survival, 3 mg/kg / Survival advantage 0.3 mg/kg / Survival advantage 3 mg/kg: Study 4.1.4, Phase 2 + 3; for Survival, 0.3 mg/kg / Survival, 3 mg/kg: q12 h × 6 from 24 h after PBI; for Survival advantage / Survival, Rx100 at 3 mg/kg/12 × 6: Study 4.1.8, Phase 1 + 2, female C57BL/6; for Survival advantage: 3 mg/kg/12 h × 6
Method: These Animal Model studies were all conducted using partial body irradiation (PBI) with tibial bone marrow sparing except the earliest study which was performed with Total Abdominal Irradiation (TAI). The male Rhesus macaque model was developed by MacVittie. The female inbred murine PBI GI-ARS Animal Model was developed by the inventors. […] Differences in radiation sensitivity by gender in rodent species are well appreciated. We are not aware of PBI GI-ARS models other than these that meet criteria required to conduct a prospective, blinded, controlled, randomized study of efficacy.
A synopsis from each of the completed three sequential efficacy studies in the C57BL/6 murine partial body irradiation model of GI-ARS is provided below. […] Study WBS 4.1.8 was a pilot study of the efficacy of Rx100 at the preferred dose and regimen. The latter two studies (4.1.5) and 4.1.8) were blinded, randomized and controlled. The former study was not blinded but was controlled and randomized (WBS 4.1.4).
Study was initiated on Feb. […] Experiments were started on Feb.
Phase 1 (n=32 per group per sex) was designed as an expanded pilot dose-ranging study (0.3, 1.0, 3.0, and 10 mg/kg) to select two Rx100 doses for additional testing in phases 2 and 3. Phases 2 and 3 (enrolled n=64 per group per gender) were conducted at the selected Rx100 doses (0.3 and 3.0 mg/kg) to ensure sufficient sample size to power an assessment of survival advantage. The latter study was conducted in two phases based on facility limitations (up to 120 animals can be handled readily in one radiation sequence). […] A higher radiation dose was used in Phases 2 and 3 and two intermediate doses selected empirically (0.3 and 3.0 mg/kg). The study was carried out to 30 days post irradiation in all phases. The primary endpoint in this study was survival at Day 10. The modified intent-to-treat primary study population was defined as those animals that survived anesthesia following irradiation. Survival advantage was calculated as the percent survival in the active arm minus the percent survival in the vehicle arm for males and females separately with pairwise comparison by Chi-Square as a test of significance without adjustment for multiple testing. Significance was declared at the 0.05 level (two-sided). […] See Kaplan-Meier FIG. 32.
The study was initiated on Apr. […] Experiments were started on Apr.
Under the study design, four radiation doses were selected for vehicle administration. […] The study was performed in female mice only. […] Animals were randomized but stratified by weight to assure equivalent weights in each arm. The study was conducted in two phases to assure adequate subject numbers based on limitations on the number of animals that can be processed per phase (120). The primary endpoint in this study was survival at Day 10 but the study was carried out to Day 30.

[2] = Short term (24 hour) slurry tests, XRPD of wet and dried solids; assay type: physicochemical; settings: minimum 24 hours, 15 solvent systems, 25 and 50° C., wet and dried solids
Method: Second, short term slurry tests were performed. Rx100.L-Lysine salt was slurried for a minimum of 24 hours in 15 different solvent systems at two different temperatures (25 and 50° C.) in an attempt to provide information for crystallization experiments and design of polymorph screening experiments. A 48 position Chemglass reaction block was used for heating and stirring the slurries which were in 2 mL HPLC vials. After the due time, vials were centrifuged and the wet solids were used for X-ray diffraction. […]

[3] = Rx Bio 415, 3 mg/kg (q12 × 6), 15.62-64 Gy
[4] = RxBio 414, 0.3 mg/kg (q12 × 6), 15.65-8 Gy
[5] = RxBio 414, 3 mg/kg (q12 × 6), 15.65-8 Gy
[6] = RxBio 418F, 3 mg/kg (q12 × 6), 15.55-67 Gy (pooled)
[7] = RxBio 418F, 3 mg/kg (q12 × 6), 15.55 Gy
[8] = RxBio 418F, 3 mg/kg (q12 × 6), 15.62 Gy
[9] = RxBio 418F, 3 mg/kg (q12 × 6), 15.67 Gy
[10] = Study 4.1.5, female, 3 mg/kg q12 h×6 starting 24 hours after PBI

Sequence of Human LPA2 (Q9HBW0 whole entry): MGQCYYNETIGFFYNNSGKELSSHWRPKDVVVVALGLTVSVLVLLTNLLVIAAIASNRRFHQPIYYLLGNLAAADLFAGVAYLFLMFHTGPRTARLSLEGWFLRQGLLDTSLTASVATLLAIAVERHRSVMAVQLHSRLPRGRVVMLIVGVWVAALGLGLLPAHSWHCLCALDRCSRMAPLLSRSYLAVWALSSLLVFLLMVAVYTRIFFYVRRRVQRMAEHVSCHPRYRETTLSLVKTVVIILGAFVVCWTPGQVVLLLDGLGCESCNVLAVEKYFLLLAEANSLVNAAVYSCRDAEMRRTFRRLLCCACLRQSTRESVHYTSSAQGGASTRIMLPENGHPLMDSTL

CCCCCCCC/C=C\CCCCCCCCOP(O)(O)=S [Rx100, (Z)—O-octadec-9-en-1-yl O,O-dihydrogen phosphorothioate]
displacement of 3H-LPA (Human LPA2): displaced 3H-LPA in a concentration-dependent manner | Survival Day 10, Rx100 arm (survivors/animals) [1, 3]: 18/32 | Survival Day ≧30, Rx100 arm (survivors/animals) [1, 3]: 9/32 | Survival Advantage Day 10 [1, 3]: 50% | Survival Advantage Day ≧30 [1, 3]: 28% | Survival Day 10, Rx100 arm (survivors/animals) [1, 4]: 29/60 | Survival Day ≧30, Rx100 arm (survivors/animals) [1, 4]: 20/60 | Survival Advantage Day 10 [1, 4]: 5% | Survival Advantage Day ≧30 [1, 4]: 23% | Survival Day 10, Rx100 arm (survivors/animals) [1, 5]: 41/64 | Survival Day ≧30, Rx100 arm (survivors/animals) [1, 5]: 23/64 | Survival Advantage Day 10 [1, 5]: 23% | Survival Advantage Day ≧30 [1, 5]: 26% | Survival Day 10, Rx100 arm (survivors/animals) [1, 6]: 52/105 | Survival Day ≧30, Rx100 arm (survivors/animals) [1, 6]: 42/105 | Survival Advantage Day 10 [1, 6]: 32% | Survival Advantage Day ≧30 [1, 6]: 25% | Survival Day 10, Rx100 arm (survivors/animals) [1, 7]: 16/34 | Survival Day ≧30, Rx100 arm (survivors/animals) [1, 7]: 13/34 | Survival Advantage Day 10 [1, 7]: 25% | Survival Advantage Day ≧30 [1, 7]: 22% | Survival Day 10, Rx100 arm (survivors/animals) [1, 8]: 21/36 | Survival Day ≧30, Rx100 arm (survivors/animals) [1, 8]: 17/36 | Survival Advantage Day 10 [1, 8]: 47% | Survival Advantage Day ≧30 [1, 8]: 39% | Survival Day 10, Rx100 arm (survivors/animals) [1, 9]: 15/35 | Survival Day ≧30, Rx100 arm (survivors/animals) [1, 9]: 12/35 | Survival Advantage Day 10 [1, 9]: 23% | Survival Advantage Day ≧30 [1, 9]: 14% | Survival, 0.3 mg/kg ([1]; Females, Day 10): 48.3% (29/60) | Survival, 3 mg/kg ([1]; Females, Day 10): 64.1% (41/64) | Survival advantage 0.3 mg/kg ([1]; Females, Day 10): 7.3% | Survival advantage 3 mg/kg ([1]; Females, Day 10): 23.1%* | Survival, 0.3 mg/kg ([1]; Females, Day 30): 33.3% (20/60) | Survival, 3 mg/kg ([1]; Females, Day 30): 35.9% (23/41) | Survival advantage 0.3 mg/kg ([1]; Females, Day 30): 23.5%* | Survival advantage 3 mg/kg ([1]; Females, Day 30): 26.1%* | Survival, 0.3 mg/kg ([1]; Males, Day 10): 38.2% (21/55) | Survival, 3 mg/kg ([1]; Males, Day 10): 41.4% (24/58) | Survival advantage 0.3 mg/kg ([1]; Males, Day 10): −2.2% | Survival advantage 3 mg/kg ([1]; Males, Day 10): 1.0% | Survival, 0.3 mg/kg ([1]; Males, Day 30): 12.7% (7/55) | Survival, 3 mg/kg ([1]; Males, Day 30): 17.2% (10/58) | Survival advantage 0.3 mg/kg ([1]; Males, Day 30): −17.1% | Survival advantage 3 mg/kg ([1]; Males, Day 30): 12.6% | increase in survival at Day 10 ([1]; Study 4.1.4, female, 0.3 mg/kg/12 h/6, not statistically significant): 7.3% | survival advantage at Day 10 ([1]; Study 4.1.4, female, 3 mg/kg/12 h×6 starting 24 hours after PBI, statistically significant): 23.1% | survival benefit by Day 30 ([1]; Study 4.1.4, female, both 0.3 mg/kg and 3 mg/kg): a benefit was seen | survival benefit in male animals ([1]; Study 4.1.4, male): no survival benefit | survival advantage at Day 10 [1, 10]: 50% | survival advantage through Day 30 [1, 10]: 28% | efficacy with delayed start of dosing ([1]; Study 4.1.5, female, dosing started ≧48 hours after radiation): Efficacy was not seen | efficacy and toxicity in male mice ([1]; Study 4.1.5, male, 3 mg/kg q12 h×6): neither efficacy nor toxicity was seen | Survival advantage ([1]; 15.55 Gy, Day 10): 24.9%* | Survival advantage ([1]; 15.55 Gy, Day 30): 21.5%* | Survival advantage ([1]; 15.62 Gy, Day 10): 47.2%* | Survival advantage ([1]; 15.62 Gy, Day 30): 38.9%* | Survival advantage ([1]; 15.67 Gy, Day 10): 22.9%* | Survival advantage ([1]; 15.67 Gy, Day 30): 14.3% | Survival, Rx100 at 3 mg/kg/12 × 6 ([1]; 15.55 Gy, Day 10): 47.1% | Survival, Rx100 at 3 mg/kg/12 × 6 ([1]; 15.55 Gy, Day 30): 38.2% | Survival, Rx100 at 3 mg/kg/12 × 6 ([1]; 15.62 Gy, Day 10): 58.3 | Survival, Rx100 at 3 mg/kg/12 × 6 ([1]; 15.62 Gy, Day 30): 47.2% | Survival, Rx100 at 3 mg/kg/12 × 6 ([1]; 15.67 Gy, Day 10): 42.9% | Survival, Rx100 at 3 mg/kg/12 × 6 ([1]; 15.67 Gy, Day 30): 34.3% | survival advantage at Day 10 and Day 30 ([1]; Study 4.1.8, female, 3 mg/kg q12 h×6 starting at 24 hours after PBI): clinically and statistically significant survival advantage | Day 10 survival ([1]; females, treatment administered starting at 24 hours after radiation): 56.3% | survival ([1]; male mice, comparable group): 72%

CCCCCCCC/C=C\CCCCCCCCOP(O)(O)=S [Rx100.L-Lysine, (Z)—O-octadec-9-en-1-yl O,O-dihydrogen phosphorothioate]
Form by XRPD after short term slurry ([2]; listed as Rx100.L-Lysine salt): no change in form | Form by XRPD after short term slurry ([2]; listed as Rx100 crystalline sesqui-L-lysine salt): do not change in form
